According to patent US20040077591A1, “Histone deacetylase inhibitors for the treatment of multiple sclerosis, amyotrophic lateral sclerosis and Alzheimer's Disease” (The Brigham and Women's Hospital, Inc., priority 2002, published 2004):
Marks after values point to notes of the source that are not given here.

Columns and labels:
[1] = test system: experimental autoimmune encephalomyelitis (EAE) in mice; assay: MOG-induced EAE in mice, clinical disability scoring; format: in vivo, C57BL/6 female mice; conditions: for EAE clinical disability: TSA 7.5 mg/kg/dose/d i.p., apparent in the chronic (days 20-40) phase
Description: FIG. 1—Efficacy of HDAC inhibitor treatment in reducing the clinical manifestations of experimental autoimmune encephalomyelitis (EAE) in mice. Mean clinical scores reflect reduced clinical disability by TSA in the neurodegenerative phase of EAE (● TSA-treated; ◯ vehicle-treated) (*P<0.05 by Fisher's protected least significant difference (PLSD) test). The remission phase lasted from days 19 to 34 following disease induction in a first experiment, days 21 to 32 in a second experiment. Animals were scored for signs of disability using the following widely used scale: 1, limp tail or isolated weakness of gait without limp tail; 2, partial hind leg paralysis; 3, total hind leg or partial hind and front leg paralysis and/or urinary incontinence; 4, total hind leg and partial front leg paralysis; 5, moribund or dead animal (with minor modifications from Issazadeh et al. (1998)). The definitions used were: (1) mean peak remission: mean of maximal score reached during remission, and (2) mean % days of severity: mean % of days with scores ≧2.
Experimental autoimmune encephalomyelitis (EAE) is the most widely accepted animal model for multiple sclerosis. […] Medications that currently modify the disease course in humans also modify the disease course in the animal model. The inventor has used the C57BL/6J mice (female mice 6-8 weeks old from Jackson Laboratories) for the experiments, which involve the administration of myelin oligodendrocyte glycoprotein (MOG), a myelin antigen, that induces autoimmunity against the brain tissue. EAE can also be induced in laboratory mice and rats using other myelin antigens.
Efficacy of HDAC inhibitor treatment in reducing the clinical manifestations of experimental autoimmune encephalomyelitis (EAE) in mice. The inventor injected 6-8 week-old C57BL/6 female mice (Jackson Laboratories, Bar Harbor, Me.) subcutaneously with 150 μg myelin oligodendrocyte glycoprotein (MOG)35-55 peptide (Quality Controlled Biochemicals, Hopkinton, Mass.) in PBS and CFA containing 0.4 mg of Mycobacterium tuberculosis (H37Ra, Difco, Detroit, Mich.), and i.p. on days 1 and 3 with 200 ng Pertussis (List Biological, Campbell, Calif.). TSA (7.5 mg/kg/dose/d i.p.) (Biomol, Plymouth Meeting, Pa. and Wako, Richmond, Va.) in PBS (9):DMSO (1) vehicle was begun on day 4. Ten mice were given vehicle and 9 were given TSA in a first experiment, wherease a second experiment utilized 15 per group.

[2] = test system: spleen tissue from EAE mice; assay: Quantitative RT-PCR on spleen tissue of EAE mice; format: in vivo; conditions: TSA-treated EAE mice
Protocol: FIG. 8—Identification of gene expression changes induced by HDAC inhibitors in vivo, using reverse transcriptase polymerase chain reaction (RT-PCR). CNS and spleen tissue samples from EAE mice were used to isolate RNA. One step real time quantitative RT-PCR (QRT-PCR) was then performed in triplicate for each sample (n=3 per group of mice) with SYBR Green and an ABI Prism 7700 Sequence Detection System (PE Applied Biosystems, Foster City, Calif.).
d) Quantitative RT-PCR (QRT-PCR) on CNS and spleen tissues from TSA-treated EAE mice detects numerous genes modulated by this HDAC inhibitor. […] QRT-PCR unveiled new CNS effects of TSA (FIG. 8), including upregulation of the neuronal trait genes sodium channel Nav1.2 and dopamine β hydroxylase (Dbh), and downregulation of the pro-apoptotic factors caspase 2 (casp2) and apoptosis inducing factor (Aif). In spleen tissues, QRT-PCR confirmed elevation of Ifna7 and Adipsin and downregulation of Igκ V22 mRNAs, and unveiled downregulation by TSA of multiple inflammatory factors, such as IL-8 receptor, IL-2 receptor, IL-12, and the costimulatory molecule CD28, from pathways implicated in MS (Glabinsk and Ransohoff, 2001; Dangond, 2002).

EAE mice spleens = assay: DNA microarray analysis of EAE mice spleens; format: in vivo
Description: (2) Modulation of genes involved in neuroprotection and immune regulation by TSA. a) Microarrays detect protective genes regulated by TSA in EAE mice spinal cords. The inventor pooled RNA from tissues of three animals in each group (TSA treated and vehicle-treated) for DNA microarray analysis. As shown (Table 3), intraperitoneal TSA led to the enhanced expression of mRNAs for the antioxidant glutathione peroxidase (Gpx1) and the neuroprotective insulin-like growth factor 2 (Igf2). […] Intraperitoneal TSA also led to decreased expression in EAE spinal cords of the chemokine receptor CCR6, immunoglobulin V(H)II, the vascular homeostasis-related phospholipase A2, and upregulation of the immunomodulatory factor interferon-α2 (Ifna2), the latter with known beneficial effects in MS patients.
b) Microarrays detect protective genes regulated by TSA in EAE mice spleens. The inventor had previously shown that HDAC mRNAs are elevated in immune cells after stimulation with mitogens or α-CD3 Ab (Dangond et al., 1998) and that HDAC inhibitors block proliferation (Dangond and Gullans, 1998). HDAC inhibition also downregulates pro-inflammatory molecules, including γ-IFN (Dangond and Gullans, 1998), IL-12 (Saemann et al., 2000), IL-12 receptor (Saemann et al., 2000), B7-1 (Bohmig et al., 1997) and TNF-α (Nancey et al., 2002). […] A known histone deacetylase-binding chaperone, 14-3-3 sigma, is also elevated in spleens.
Microarrays detect protective genes co-regulated by TSA in EAE mice spinal cords and spleens.

`CC(/C=C/C(=O)NO)=C\[C@@H](C)C(=O)c1ccc(N(C)C)cc1` [TSA, Trichostatin A] was tested, and the “Mean % Days of Severity (mean % of days with scores ≧2)” value ([1]; TSA 7.5 mg/kg/dose/d i.p. from day 4, P = 0.0011 vs vehicle) was 33.9 ± 4.3** %, the “Days of Onset (Clinical EAE)” value ([1]; TSA 7.5 mg/kg/dose/d i.p. from day 4, two separate exp. pooled) was 13 ± 0.5 days and the EAE clinical disability [1] was “decrease in EAE clinical disability”. The EAE clinical disability ([1]; listed as Trichostatin A) was “effective in reducing EAE in mice”, the “Mean Peak Remission Phase (mean of maximal score reached during remission)” value ([1]; clinical score scale 1-5, TSA 7.5 mg/kg/dose/d i.p. from day 4, P = 0.0036 vs vehicle) was 1.8 ± 0.1* and the “Adipsin mRNA by QRT-PCR” value [2] was “elevation”. For the same compound, the “CD28 mRNA by QRT-PCR” value [2] was “downregulation”, the “IL-2 receptor mRNA by QRT-PCR” value [2] was “downregulation” and the “IL-8 receptor mRNA by QRT-PCR” value [2] was “downregulation”. For the same compound, the “IL-12 mRNA by QRT-PCR” value [2] was “downregulation”, the “Ifna7 mRNA by QRT-PCR” value [2] was “elevation” and the “Igκ V22 mRNA by QRT-PCR” value [2] was “downregulation”. The “Fold Δ Spleen, Paired box gene 4 (Pax4)” value (EAE mice spleens; Table 5, probe set AB010557, i.p. TSA, EAE mice spleen) was −2.4 fold, the “Fold Δ Spleen, Axin” value (EAE mice spleens; Table 5, probe set AF009011, i.p. TSA, EAE mice spleen) was 2.1 fold and the “Fold Δ Spleen, DNA methyltransferase (Dnmt1)” value (EAE mice spleens; Table 5, probe set AF036008, i.p. TSA, EAE mice spleen) was −3.2 fold. The “Fold Δ Spleen, Metaxin homolog” value (EAE mice spleens; Table 5, probe set AV108173, i.p. TSA, EAE mice spleen) was −4 fold, the “Fold Δ Spleen, Thromboxane A2 receptor (Tbxa2r)” value (EAE mice spleens; Table 5, probe set D10849, i.p. TSA, EAE mice spleen) was −4.9 fold and the “Fold Δ Spleen, Growth differentiation factor (Gdf9)” value (EAE mice spleens; Table 5, probe set L06444, i.p. TSA, EAE mice spleen) was 5.4 fold. The “Fold Δ Spleen, Neurofilament heavy (Nefh)” value (EAE mice spleens; Table 5, probe set M35131, i.p. TSA, EAE mice spleen) was 2.2 fold, the “Fold Δ Spleen, Snail homolog 1 (Snail1)” value (EAE mice spleens; Table 5, probe set M95604, i.p. TSA, EAE mice spleen) was 2.9 fold and the “Fold Δ Spleen, Dishevelled 2 (Dvl2)” value (EAE mice spleens; Table 5, probe set U24160, i.p. TSA, EAE mice spleen) was −3.6 fold. For the same compound, the “Fold Δ Spleen, Rearranged in lymphoma (Frat1)” value (EAE mice spleens; Table 5, probe set U58974, i.p. TSA, EAE mice spleen) was 5.4 fold, the “Fold Δ Spleen, Immunoglobulin H and L variable” value (EAE mice spleens; Table 5, probe set U62386, i.p. TSA, EAE mice spleen) was −2.5 fold and the “Fold Δ Spleen, Cyclin D-interacting Dmp1 (Dmtf1)” value (EAE mice spleens; Table 5, probe set U70017, i.p. TSA, EAE mice spleen) was 5.2 fold. The “Fold Δ Spleen, Neuronal PAS domain 1 (Npas1)” value (EAE mice spleens; Table 5, probe set U77967, i.p. TSA, EAE mice spleen) was −3.5 fold, the “Fold Δ Spleen, Phospholipase C-beta-1b (Picb1)” value (EAE mice spleens; Table 5, probe set U85714, i.p. TSA, EAE mice spleen) was 3.7 fold and the “Fold Δ Spleen, Glutathione peroxidase (Gpx1)” value (EAE mice spleens; Table 5, probe set X03920, i.p. TSA, EAE mice spleen) was 2.3 fold. For the same compound, the “Fold Δ Spleen, Immunoglobulin kappa chain (1gk-V20)” value (EAE mice spleens; Table 5, probe set X16678, i.p. TSA, EAE mice spleen) was −2.3 fold, the “Fold Δ Spleen, Paired box gene 2 (Pax2)” value (EAE mice spleens; Table 5, probe set X55781, i.p. TSA, EAE mice spleen) was 2.1 fold and the “Fold Δ Spleen, Max binding protein ROX (Mnt)” value (EAE mice spleens; Table 5, probe set Y07609, i.p. TSA, EAE mice spleen) was −3.5 fold. The “Fold Change, 14-3-3 sigma” value (EAE mice spleens; probe set 96704, spleen, I.P. TSA vs vehicle-treated EAE mice) was 3.9 fold, the “Fold Change, Parvalbumin (Pva)” value (EAE mice spleens; probe set 96719, spleen, I.P. TSA vs vehicle-treated EAE mice) was 6.3 fold and the “Fold Change, IgH variable” value (EAE mice spleens; probe set 96970, spleen, I.P. TSA vs vehicle-treated EAE mice) was −3.9 fold. The “Fold Change, Igκ-V22” value (EAE mice spleens; probe set 97570, spleen, I.P. TSA vs vehicle-treated EAE mice) was −4.4 fold, the “Fold Change, IgA VDJH” value (EAE mice spleens; probe set 99420, spleen, I.P. TSA vs vehicle-treated EAE mice) was −2.8 fold and the “Fold Change, Adipsin (Adn)” value (EAE mice spleens; probe set 99671, spleen, I.P. TSA vs vehicle-treated EAE mice) was 9.0 fold. The “Fold Change, Galanin receptor 1 (Galr1)” value (EAE mice spleens; probe set 99837, spleen, I.P. TSA vs vehicle-treated EAE mice) was −4.2 fold, the “Fold Change, IgE H constant” value (EAE mice spleens; probe set 99850, spleen, I.P. TSA vs vehicle-treated EAE mice) was −3.1 fold and the “Fold Change, Kallikrein (Klk)” value (EAE mice spleens; probe set 100060, spleen, I.P. TSA vs vehicle-treated EAE mice) was 2.8 fold. For the same compound, the “Fold Change, Lactotransferrin (Ltf)” value (EAE mice spleens; probe set 101115, spleen, I.P. TSA vs vehicle-treated EAE mice) was −8.2 fold, the “Fold Change, IgG rearranged κ” value (EAE mice spleens; probe set 101616, spleen, I.P. TSA vs vehicle-treated EAE mice) was −4.5 fold and the “Fold Change, IgG variable” value (EAE mice spleens; probe set 101752, spleen, I.P. TSA vs vehicle-treated EAE mice) was −8.2 fold. The “Fold Change, V kappa and J kappa coding joint” value (EAE mice spleens; probe set 101826, spleen, I.P. TSA vs vehicle-treated EAE mice) was −4.2 fold, the “Fold Change, γ-1 Ig Constant” value (EAE mice spleens; probe set 101870, spleen, I.P. TSA vs vehicle-treated EAE mice) was −5.0 fold and the “Fold Change, Interferon alpha 7 (Ifna7)” value (EAE mice spleens; probe set 102149, spleen, I.P. TSA vs vehicle-treated EAE mice) was 5.8 fold. For the same compound, the “Fold Change, IgH gene DJC” value (EAE mice spleens; probe set 102843, spleen, I.P. TSA vs vehicle-treated EAE mice) was −3.6 fold and the “Fold Change, Snail homolog” value (EAE mice spleens; probe set 103830, spleen, I.P. TSA vs vehicle-treated EAE mice) was 3.0 fold.
